Source: BindingDB's records for doi:10.1016/j.chembiol.2007.02.007 (Massachusetts General Hospital, 2007)

biological target: Phosphatidylinositol 4,5-bisphosphate 3-kinase catalytic subunit alpha isoform (Homo sapiens, UniProt P42336); test: Enzyme Assay
Sequence (P42336 whole entry, canonical isoform): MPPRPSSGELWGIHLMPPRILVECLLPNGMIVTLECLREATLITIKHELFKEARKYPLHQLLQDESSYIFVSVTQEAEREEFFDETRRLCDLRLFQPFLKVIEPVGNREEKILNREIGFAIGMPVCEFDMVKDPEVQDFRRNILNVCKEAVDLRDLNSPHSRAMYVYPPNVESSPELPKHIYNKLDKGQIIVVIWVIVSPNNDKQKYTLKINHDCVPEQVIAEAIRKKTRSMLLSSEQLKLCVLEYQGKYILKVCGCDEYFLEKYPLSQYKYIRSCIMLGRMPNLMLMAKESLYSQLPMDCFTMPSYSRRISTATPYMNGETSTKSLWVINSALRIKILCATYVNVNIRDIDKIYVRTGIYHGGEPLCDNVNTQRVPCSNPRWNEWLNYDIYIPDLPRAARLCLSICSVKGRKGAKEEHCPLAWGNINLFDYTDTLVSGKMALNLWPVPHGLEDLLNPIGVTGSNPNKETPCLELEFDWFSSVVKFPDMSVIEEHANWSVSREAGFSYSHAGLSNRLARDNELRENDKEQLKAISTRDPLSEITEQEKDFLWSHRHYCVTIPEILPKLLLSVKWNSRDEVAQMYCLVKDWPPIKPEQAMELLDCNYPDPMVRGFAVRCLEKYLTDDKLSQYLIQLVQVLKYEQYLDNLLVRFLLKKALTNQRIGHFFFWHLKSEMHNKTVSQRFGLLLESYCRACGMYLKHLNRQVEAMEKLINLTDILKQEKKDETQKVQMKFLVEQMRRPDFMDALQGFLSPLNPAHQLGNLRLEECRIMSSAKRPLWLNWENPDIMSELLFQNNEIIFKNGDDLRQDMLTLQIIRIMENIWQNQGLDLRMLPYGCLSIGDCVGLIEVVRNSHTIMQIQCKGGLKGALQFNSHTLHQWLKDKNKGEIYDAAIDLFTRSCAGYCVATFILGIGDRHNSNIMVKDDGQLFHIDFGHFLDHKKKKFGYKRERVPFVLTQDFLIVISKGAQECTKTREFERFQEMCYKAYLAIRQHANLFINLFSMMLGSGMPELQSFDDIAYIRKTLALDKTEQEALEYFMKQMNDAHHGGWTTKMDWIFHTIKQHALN
Description: Inhibition of PI3 kinase by WmC20 derivatives causing a formation of covalent bond between WmC20 derivatives and the target protein.

IC50 | Compound
0.108 µM | COC[C@H]1OC(=O)C(=CN(C)CCCCCC(=O)O)C2C(=O)C(=O)C3=C([C@H](OC(C)=O)C[C@]4(C)C(=O)CC[C@@H]34)[C@]21C (some centres undefined) [WmC20-NMeHA, 4]
1.14 µM | COC[C@H]1OC(=O)C(CSCC(NC(C)=O)C(=O)O)=C2C(=O)C(=O)C3=C([C@H](OC(C)=O)C[C@]4(C)C(=O)CCC34)[C@]21C (some centres undefined) [WmC20-cys, 3]
> 1 µM | COC[C@H]1OC(=O)C(=CNCCCCC(NC(C)=O)C(=O)O)C2C(=O)C(=O)C3=C([C@H](OC(C)=O)C[C@]4(C)C(=O)CC[C@@H]34)[C@]21C (some centres undefined) [WmC20-lys, 2]

Compound | IC50
COC[C@H]1OC(=O)C(=CN2CCCC2C(=O)O)C2C(=O)C(=O)C3=C([C@H](OC(C)=O)C[C@]4(C)C(=O)CC[C@@H]34)[C@]21C (some centres undefined) [WmC20-pro, 1] | 0.068 µM
